Patent US4318916A, “Antibiotic PS-5 and derivatives having β-lactamase inhibitory activity and production thereof” (Sanraku-Ocean Co., Ltd., priority 1977, dated 1982)

Columns and labels:
Test in all cases: Potentiation disc assay with penicillin G (Table 9)
Assay type in all cases: cell-based
Conditions in all cases: for Inhibition zone With pen. G: 50 μg/ml penicillin G in agar
[1] = system: Citrobacter freundii E-9
Protocol: (§1) (A) Ten milliliters of molten nutrient agar containing 50 μg/ml of penicillin G or cephaloridine, 0.8% of Kyokuto Nutrient Broth Powder and 1.0% of Difco Bacto-Agar (pH 7.0) were seeded with the beta-lactam-resistant, beta-lactamase-producing microorganisms indicated in Tables 9 and 10, and poured in a 9-cm Petri dish to provide the bio-assay agar plate. On this assay plate, 8-mm pulp discs containing 25 μl each of antibiotic PS-5 solutions at the indicated concentrations were placed and incubated at 35° C. for 18 hours before reading the inhibition zones. The control assay plate was similarly prepared without penicillin G nor cephaloridine. As reference antibiotics, penicillin G, ampicillin, oxacillin and cefazolin were disc-assayed under the same conditions.

[2] = system: Enterobacter sp. E-8
Protocol: as §1

[3] = system: Proteus sp. P-22
Protocol: as §1

[4] = system: Proteus vulgaris P-5
Protocol: as §1

[5] = system: Serratia marcescens S-18
Protocol: as §1

Q: With CCC1C(=O)N2C(C(=O)O)=C(SCCNC(C)=O)CC12 (single isomer, unassigned) [Antibiotic PS-5] as the compound, how does the zone of inhibition at 79.5 µg/mL ([1]; E9, 18 h, PS-5 79.5 μg/ml, read-out: Inhibition zone Without pen. G) read?
A: 10.4 mm

Q: And the zone of inhibition at 100 µg/mL ([1]; E9, 18 h, PS-5 100 μg/ml, read-out: Inhibition zone Without pen. G)?
A: 13.2 mm

Q: What about the zone of inhibition at 159 µg/mL ([1]; E9, 18 h, PS-5 159 μg/ml, read-out: Inhibition zone Without pen. G) of the same compound?
A: 17.2 mm

Q: What about the zone of inhibition at 318 µg/mL ([1]; E9, 18 h, PS-5 318 μg/ml, read-out: Inhibition zone Without pen. G) of the same compound?
A: 20.8 mm

Q: And the “Inhibition zone With pen. G” value ([1]; PS-5 79.5 μg/ml)?
A: 13.1 mm

Q: What about the “Inhibition zone With pen. G” value ([1]; PS-5 100 μg/ml) of the same compound?
A: 15.2 mm

Q: And the “Inhibition zone With pen. G” value ([1]; PS-5 159 μg/ml)?
A: 19.2 mm

Q: What about the “Inhibition zone With pen. G” value ([1]; PS-5 318 μg/ml) of the same compound?
A: 23.0 mm

Q: And the “Inhibition zone With pen. G” value ([2]; PS-5 79.5 μg/ml)?
A: 11.0 mm

Q: What about the “Inhibition zone With pen. G” value ([2]; PS-5 100 μg/ml) of the same compound?
A: 13.8 mm

Q: And the “Inhibition zone With pen. G” value ([2]; PS-5 159 μg/ml)?
A: 17.5 mm

Q: What about the “Inhibition zone With pen. G” value ([2]; PS-5 318 μg/ml) of the same compound?
A: 20.0 mm

Q: And the zone of inhibition at 79.5 µg/mL ([2]; SP.E8, 18 h, PS-5 79.5 μg/ml, read-out: Inhibition zone Without pen. G)?
A: 11 mm

Q: What about the zone of inhibition at 100 µg/mL ([2]; SP.E8, 18 h, PS-5 100 μg/ml, read-out: Inhibition zone Without pen. G) of the same compound?
A: 13.8 mm

Q: And the zone of inhibition at 159 µg/mL ([2]; SP.E8, 18 h, PS-5 159 μg/ml, read-out: Inhibition zone Without pen. G)?
A: 17.2 mm

Q: And the zone of inhibition at 318 µg/mL ([2]; SP.E8, 18 h, PS-5 318 μg/ml, read-out: Inhibition zone Without pen. G)?
A: 20.1 mm

Q: And the zone of inhibition at 79.5 µg/mL ([3]; 18 h, PS-5 79.5 μg/ml, read-out: Inhibition zone Without pen. G)?
A: 0 mm

Q: What about the zone of inhibition at 100 µg/mL ([3]; 18 h, PS-5 100 μg/ml, read-out: Inhibition zone Without pen. G) of the same compound?
A: 0 mm

Q: And the zone of inhibition at 159 µg/mL ([3]; 18 h, PS-5 159 μg/ml, read-out: Inhibition zone Without pen. G)?
A: 11.7 mm

Q: And the zone of inhibition at 318 µg/mL ([3]; 18 h, PS-5 318 μg/ml, read-out: Inhibition zone Without pen. G)?
A: 13.6 mm

Q: And the “Inhibition zone With pen. G” value ([3]; PS-5 79.5 μg/ml)?
A: 12.8 mm

Q: What about the “Inhibition zone With pen. G” value ([3]; PS-5 100 μg/ml) of the same compound?
A: 13.8 mm

Q: What about the “Inhibition zone With pen. G” value ([3]; PS-5 159 μg/ml) of the same compound?
A: 18.2 mm

Q: What about the “Inhibition zone With pen. G” value ([3]; PS-5 318 μg/ml) of the same compound?
A: 21.4 mm

Q: And the zone of inhibition at 79.5 µg/mL ([4]; P5, 18 h, PS-5 79.5 μg/ml, read-out: Inhibition zone Without pen. G)?
A: 0 mm

Q: What about the zone of inhibition at 100 µg/mL ([4]; P5, 18 h, PS-5 100 μg/ml, read-out: Inhibition zone Without pen. G) of the same compound?
A: 10.3 mm

Q: What about the zone of inhibition at 159 µg/mL ([4]; P5, 18 h, PS-5 159 μg/ml, read-out: Inhibition zone Without pen. G) of the same compound?
A: 14 mm

Q: And the zone of inhibition at 318 µg/mL ([4]; P5, 18 h, PS-5 318 μg/ml, read-out: Inhibition zone Without pen. G)?
A: 16 mm

Q: What about the “Inhibition zone With pen. G” value ([4]; PS-5 79.5 μg/ml) of the same compound?
A: 18.3 mm

Q: What about the “Inhibition zone With pen. G” value ([4]; PS-5 100 μg/ml) of the same compound?
A: 22.2 mm

Q: And the “Inhibition zone With pen. G” value ([4]; PS-5 159 μg/ml)?
A: 24.5 mm

Q: What about the “Inhibition zone With pen. G” value ([4]; PS-5 318 μg/ml) of the same compound?
A: 26.6 mm

Q: And the “Inhibition zone With pen. G” value ([5]; PS-5 79.5 μg/ml)?
A: 13.8 mm

Q: What about the “Inhibition zone With pen. G” value ([5]; PS-5 100 μg/ml) of the same compound?
A: 16.1 mm

Q: And the “Inhibition zone With pen. G” value ([5]; PS-5 159 μg/ml)?
A: 22.0 mm

Q: And the “Inhibition zone With pen. G” value ([5]; PS-5 318 μg/ml)?
A: 22.1 mm

Q: And the zone of inhibition at 79.5 µg/mL ([5]; S18, 18 h, PS-5 79.5 μg/ml, read-out: Inhibition zone Without pen. G)?
A: 0 mm

Q: What about the zone of inhibition at 100 µg/mL ([5]; S18, 18 h, PS-5 100 μg/ml, read-out: Inhibition zone Without pen. G) of the same compound?
A: 13 mm

Q: What about the zone of inhibition at 159 µg/mL ([5]; S18, 18 h, PS-5 159 μg/ml, read-out: Inhibition zone Without pen. G) of the same compound?
A: 17.8 mm

Q: What about the zone of inhibition at 318 µg/mL ([5]; S18, 18 h, PS-5 318 μg/ml, read-out: Inhibition zone Without pen. G) of the same compound?
A: 21.3 mm
